Source: US9163032B2, “Esters of DCPLA and methods of treatment using the same” (Blanchette Rockefeller Neurosciences Institute, priority 2011, dated 2015)
Read-outs that look alike come from different tables or passages of the source.

Legend:
PKC-ε [1] = biological target: T1, PKC-ε (Homo sapiens, UniProt Q02156); test: PKC activation assay with purified PKC-ε isozyme (32P-phosphoprotein formation); assay type: biochemical; details: for Emax: % of control of PKCε at maximum; for Specificity ε/α: Activation of PKC-ε ÷ activation or inhibition of PKCα at 3xEC50; for concentration of maximal activation: FIG. 2, FIG. 4; for EC50: lowest concentration that activates by 50% of maximum activation; for PKC-ε activation at its peak: maximum, FIG. 1, 2, 4
T1 sequence (Q02156 1-737): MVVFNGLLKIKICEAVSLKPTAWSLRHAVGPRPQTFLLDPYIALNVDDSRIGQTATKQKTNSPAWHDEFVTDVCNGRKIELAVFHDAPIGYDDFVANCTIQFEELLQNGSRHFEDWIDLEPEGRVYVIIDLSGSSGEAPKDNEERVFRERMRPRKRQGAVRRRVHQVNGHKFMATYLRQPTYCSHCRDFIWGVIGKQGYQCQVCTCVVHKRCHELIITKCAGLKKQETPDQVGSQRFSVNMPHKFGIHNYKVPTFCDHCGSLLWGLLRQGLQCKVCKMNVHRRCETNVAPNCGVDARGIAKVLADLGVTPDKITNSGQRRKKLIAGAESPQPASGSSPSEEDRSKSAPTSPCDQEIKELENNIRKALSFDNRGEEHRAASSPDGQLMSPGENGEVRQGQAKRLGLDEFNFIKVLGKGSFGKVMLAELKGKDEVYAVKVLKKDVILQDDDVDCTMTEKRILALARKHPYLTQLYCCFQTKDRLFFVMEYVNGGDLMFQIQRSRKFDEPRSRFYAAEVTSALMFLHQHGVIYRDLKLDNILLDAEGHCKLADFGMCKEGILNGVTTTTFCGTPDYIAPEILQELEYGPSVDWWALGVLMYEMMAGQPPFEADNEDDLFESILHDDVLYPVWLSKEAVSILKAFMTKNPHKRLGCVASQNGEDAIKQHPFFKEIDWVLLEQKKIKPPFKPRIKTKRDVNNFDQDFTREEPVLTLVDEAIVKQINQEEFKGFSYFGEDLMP
Description: (§1) For measurement of PKC activation by DCPLA-ME, activation of recombinant PKC-α, PKC-ε, and PKC-δ was evaluated. DCPLA-ME induced activation was measured in the absence of diacylglycerol (DAG) and phosphatidylserine (PS) as described earlier. See Nelson, T. J. et al., J. Biol. Chem., 2009, 284: 34514-34521, and Kanno, T. et al., J. Cell Physiol., 2009, 221: 183-188. Individual enzymes were incubated for 15 min at 37° C. in the presence of 10 μM histones, 4.89 mM CaCl2, 10 mM MgCl2, 20 mM HEPES (pH 7.4), 0.8 mM EDTA, 4 mM EGTA, 4% glycerol, 8 μg/ml aprotinin, 8 μg/ml leupeptin, 2 mM benzamidine, and 0.5 μCi of [γ-^32P]ATP. Purified PKC-α, PKC-ε and PKC-δ were preincubated with DCPLA-ME for 5 min at room temperature. [^32P]-Phosphoprotein formation was measured by adsorption onto phosphocellulose.
(§2) To measure PKC, 10 μl of cell homogenate or purified PKC isozyme was incubated for 15 min at 37° C. in the presence of 10 μM histones, 4.89 mM CaCl2, 1.2 μg/μl phosphatidyl-L-serine, 0.18 μg/μl 1,2-dioctanoyl-sn-glycerol, 10 mM MgCl2, 20 mM HEPES (pH 7.4), 0.8 mM EDTA, 4 mM EGTA, 4% glycerol, 8 μg/ml aprotinin, 8 μg/ml leupeptin, and 2 mM benzamidine. [γ32P]ATP (0.5 μCi) was added and 32P-phosphoprotein formation was measured by adsorption onto phosphocellulose as described previously. See Nelson et al., J. Neurochemistry, 1995, 65: 2350-2357.
(§3) PKC activity of each compound was measured in the absence of diacylglycerol and phosphatidyl-L-serine and PKC-δ and PKC-ε were measured in the absence of added EGTA and CaCl2, as described by Kanno et al., J. Lipid Res., 2006, 47: 1146-1156. Low concentrations of Ca^2+ are needed because high Ca^2+ interacts with the PKC phosphatidylserine binding site and prevents activation. […] To determine their PKC isozyme specificity, the compounds were pre-incubated with purified isoforms of PKC for five minutes and the PKC activity was measured radiometrically.
(§4) The activation and PKC isozyme specificity of DCPLA-ethyl ester was measured following the procedures in Example 1(B) and (C), except that 9 ng of the purified isozyme was used and it was pre-incubated for 5 minutes at room temperature (FIG. 3). PKC-ε activation by DCPLA-tert-butyl ester and DCPLA-retinyl ester was measured in the same manner as DCPLA-ethyl ester (FIG. 3).
The EC50 values, PKC specificity, and activation for a select number of DCPLA esters was determined (see Table 1). EC50 values were determined by measuring the lowest concentration that activates by 50% of maximum activation. […] The specificity and activation of PKC by the various esters of DCPLA were determined from the measurements of activation of PKC isozymes.

PKC-α = PKC-α (Homo sapiens, UniProt P17252); test: PKC activation assay with purified PKC-α isozyme; assay type: biochemical
Description: as §1
as §2, with “See Nelson et al., J. Neurochemistry, 1995, 65: 2350-2357.” left out
as §3, with “1146-1156.” for “1146-1156. Low concentrations of Ca^2+ are needed because high Ca^2+ interacts with the PKC phosphatidylserine binding site and prevents activation.”
as §4

PKC-ε [2] = test: PKC-ε level in primary neurons (immunofluorescence, Western Blot); assay type: cell-based, rat; details: 5 μM inhibitor, ASPD + DCPLA-ME
Description: Cells were grown in two chambered slides (Nunc, USA) at low density. For immunofluorescence staining, the cells were washed with PBS (pH 7.4) and fixed with 4% paraformaldehyde for 4 min. Following fixation, the cells were blocked and permeabilized with 5% serum and 0.3% Triton X-100 in 1×PBS for 30 min. Cells were washed three times with 1×PBS and incubated with primary antibodies for 1 hr at 1:100 dilution. After the incubation, the slides were again washed three times in 1×PBS and were incubated with the FITC anti-mouse IgG and Rhodamine anti-rabbit IgG for 1 hr at 1:400 dilution. The cells were further washed and stained with DAPI (4′,6-diamidino-2′-phenylindole, dihydrochloride) (Thermo Scientific, USA) to stain the nucleus. Finally, the slides were washed and mounted in Pro Long Gold antifade mounting solution (Invitrogen, USA) and were viewed under a LSM 710 Meta confocal microscope (Zeiss) at 350 nm, 490 nm, and 540 nm excitation and 470 nm, 525 nm, and 625 nm emission for DAPI, FITC, and Rhodamine respectively. Six individual fields at 63× oil lens magnification were analyzed for the mean fluorescence intensity (MFI) in each channel.
Cells were harvested in homogenizing buffer containing 10 mM Tris-Cl (pH 7.4), 1 mM PMSF (phenylmethylsulfonyl fluoride), 1 mM EGTA, 1 mM EDTA, 50 mM NaF, and 20 μM leupeptin, and were lysed by sonication. The homogenate was centrifuged at 100,000×g for 15 min at 4° C. to obtain the cytosolic fraction (supernatant) and membrane (pellet). The pellet was resuspended in the homogenizing buffer by sonication. […] Protein concentration was measured using the Coomassie Plus (Bradford) Protein Assay kit (Pierce, USA). Following quantification, 20 μg of protein from each sample was subjected to SDS-PAGE analysis in a 4-20% gradient Tris-Glycine gel (Invitrogen, USA). […] The blot was imaged in an ImageQuant RT-ECL (GE Life Sciences, Piscataway, N.J.) and densitometric quantification was performed using IMAL software (Blanchette Rockefeller Neurosciences Institute, Morgantown, W. Va.). […]

[3] = tested on: cultured primary rat hippocampal neurons; test: Neuroprotection against ASPD induced toxicity, MTT assay, primary neurons; assay type: cell-based; details: added to the cells with DCPLA-ME, 50 nM ASPD
Description: Viability of cells was measured by MTT assay. MTT (i.e., 3-(4,5-dimethylthiazol-2-yl)-2,5-diphenyltetrazolium bromide) is a tetrazolium salt that is cleaved to formazan by the succinate dehydrogenase, which is only active in viable cells. After solubilization of the formazan, the amount of dye can be quantified with a microplate reader at 570 nm along with a reference of 630 nm. For the MTT assay, 5×10^4 primary rat hippocampal neurons from 18-day-old embryonic Sprague-Dawley rat brains or SH-SY5Y cells were plated on each well of 24-well plates coated with poly-D-lysine. After treatment, the cells were washed with 1× PBS and were incubated with 200 μl of 1 mg/ml MTT solution (Sigma, USA) at 37° C. for 2 hr. Then the MTT-solution was removed and the cells were lysed with 200 μl isopropanol containing 0.04 M HCl and […] for 10 min. Finally, the reading was taken at 570 nm and 630 nm. All the samples were done in triplicate and the data were represented as the percentage of control.
Bryostatin 1, DCPLA, and DCPLA-ME were tested against ASPD-induced cytotoxicity to determine their neuroprotective efficacy.

PKC-δ = PKC-δ (Homo sapiens, UniProt Q05655); test: PKC activation assay with purified PKC-δ isozyme; assay type: biochemical
Description: as §1
as §2, with “2350-2357. […]” for “2350-2357.”

PKC-δ, sequence (Q05655 whole entry): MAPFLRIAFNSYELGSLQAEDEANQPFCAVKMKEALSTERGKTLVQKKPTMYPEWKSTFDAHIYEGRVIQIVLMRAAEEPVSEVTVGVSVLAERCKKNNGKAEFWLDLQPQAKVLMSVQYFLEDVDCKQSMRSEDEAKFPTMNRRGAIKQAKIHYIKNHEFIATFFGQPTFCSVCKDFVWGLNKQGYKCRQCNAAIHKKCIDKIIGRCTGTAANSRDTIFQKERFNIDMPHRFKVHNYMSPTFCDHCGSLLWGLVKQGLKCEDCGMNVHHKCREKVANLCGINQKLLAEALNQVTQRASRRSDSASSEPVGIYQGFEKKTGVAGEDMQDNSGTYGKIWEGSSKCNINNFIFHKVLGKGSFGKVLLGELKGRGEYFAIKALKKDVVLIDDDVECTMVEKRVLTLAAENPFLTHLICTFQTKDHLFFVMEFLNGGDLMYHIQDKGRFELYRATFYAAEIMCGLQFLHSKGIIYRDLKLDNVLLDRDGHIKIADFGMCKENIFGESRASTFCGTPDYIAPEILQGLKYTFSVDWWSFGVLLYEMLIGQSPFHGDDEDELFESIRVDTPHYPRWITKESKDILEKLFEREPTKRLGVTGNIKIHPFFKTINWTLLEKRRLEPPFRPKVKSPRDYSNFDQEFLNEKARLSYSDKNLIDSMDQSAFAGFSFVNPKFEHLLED

Row | Compound | Emax (PKC-ε [1]) | Specificity ε/α (PKC-ε [1]) | concentration of maximal activation (PKC-ε [1]) | EC50 (PKC-ε [1]) | PKC-ε activation at its peak (PKC-ε [1]) | also measured
1 | CCCCCC1CC1CC1CC1CCCCCCCC(=O)OC1CC[C@@]2(C)C(=CC[C@H]3[C@H]4CC[C@H]([C@H](C)CCCC(C)C)[C@@]4(C)CC[C@H]32)C1 (some centres unmarked) [DCPLA-cholesteryl ester, DCPLA cholesteryl ester] | 122% | 0.94 | 0.01 nM | 0.005 nM | up to 130 % of control | affinity for PKC-ε and PKC-δ (PKC-ε [1]): extremely high affinity; form of activity vs. concentration response (PKC-ε [1]): biphasic manner; potency relative to Bryostatin 1 (PKC-ε [1]; from concentration of maximal activity): 18 ×; form of activity vs. concentration response (PKC-ε [1]; listed as cholesteryl ester): bimodal activation; effect on PKC-α (PKC-α): inhibited at all concentrations
2 | CCCCC/C=C\C/C=C\CCCCCCCC(=O)O[C@H]1CC[C@@]2(C)C(=CC[C@H]3[C@@H]4CC[C@H]([C@H](C)CCCC(C)C)[C@@]4(C)CC[C@@H]32)C1 [Cholesteryl linoleate, cholesteryl linoleate, reference compound] | – | – | – | – | – | PKC-ε activation (PKC-ε [1]; FIG. 4): little or no activation; PKC-α activation (PKC-α; FIG. 4): 20%
3 | EAVSLKPT | – | – | – | – | – | effect on DCPLA-ME protection of PKC-ε protein level (PKC-ε [2]): completely blocked; effect on DCPLA-ME neuroprotection [3]: blocked DCPLA-ME's protective effect
4 | CCCCCC1CC1CC1CC1CCCCCCCC(=O)OC(C)C (centres unmarked) [DCPLA-isopropyl ester] | 140% | 1.4 | 10 nM | 0.1 nM | up to 40 % of control | effect on PKC-δ (PKC-δ): only slightly activated
